Laboratory results: publication PMC8584173, “The Cytotoxic Effect of Copper (II) Complexes with Halogenated 1,3-Disubstituted Arylthioureas on Cancer and Bacterial Cells” (International Journal of Molecular Sciences, 2021)

Key:
[1] = system: S. epidermidis 435; assay: MIC, hospital MRSE strain; type: cell-based, Staphylococcus epidermidis; conditions: hospital MRSE S. epidermidis 435
Experimental: (§1) The antimicrobial activity of the compounds was tested on Gram-positive bacteria (Staphylococcus aureus NCTC 4163, Staphylococcus aureus ATCC 25923, Staphylococcus aureus ATCC 6538, Staphylococcus aureus ATCC 29213, Staphylococcus epidermidis ATCC 12228, Staphylococcus epidermidis ATCC 35984), Gram-negative rods (Escherichia coli ATCC 10538, Escherichia coli ATCC 25922, Pseudomonas aeruginosa ATCC 15442, Pseudomonas aeruginosa ATCC 27863) and yeasts (Candida albicans ATCC 10231, Candida albicans ATCC 90028, Candida parapsilosis ATCC 22019). Hospital methicillin-resistant strains of Staphylococcus aureus and Staphylococcus epidermidis were obtained from the collection of the Department of Pharmaceutical Microbiology, Medical University of Warsaw, Poland.
(§2) Antifungal activities were assessed using Mueller–Hinton agar + 2% glucose and 0.5 µg/mL methylene blue dye medium. Sterile filter paper discs (9 mm diameter, Whatman Number 3 chromatography paper) were dripped with tested compound solutions (in dimethylsulfoxide, DMSO) to load 400 μg of a given compound per disc. Dry discs were placed on the surface of appropriate agar medium. The results (diameter of the growth inhibition zone) were read after 18 h of incubation at 35 °C. Minimal inhibitory concentration (MIC) was tested by the twofold serial microdilution method (in 96-well microtiter plates) using Mueller–Hinton broth medium (Beckton Dickinson) for bacteria or RPMI-1640 medium for Candida species, according to CLSI guidelines. The stock solution of tested agent was prepared in DMSO and diluted in sterile water. […] The final inoculum of all studied microorganisms was 10^5 CFU/ mL^−1 (colony forming units per ml). Minimal inhibitory concentrations (the lowest concentration of a tested agent that prevents visible growth of a microorganism) were read after 18 h (bacteria) or 24 h (yeasts) of incubation at 35 °C.

[2] = system: S. epidermidis 420; assay: MIC, hospital MRSE strain; type: cell-based, Staphylococcus epidermidis; conditions: hospital MRSE S. epidermidis 420
Experimental: as §1, §2

[3] = system: S. epidermidis 438; assay: MIC, hospital MRSE strain; type: cell-based, Staphylococcus epidermidis; conditions: hospital MRSE S. epidermidis 438
Experimental: as §1, §2

[4] = system: S. epidermidis 510; assay: MIC, hospital MRSE strain; type: cell-based, Staphylococcus epidermidis; conditions: hospital MRSE S. epidermidis 510
Experimental: as §1, §2

[5] = system: S. epidermidis 515; assay: MIC, hospital MRSE strain; type: cell-based, Staphylococcus epidermidis; conditions: hospital MRSE S. epidermidis 515
Experimental: as §1, §2

[6] = system: S. epidermidis 437; assay: MIC, hospital MRSE strain; type: cell-based, Staphylococcus epidermidis; conditions: hospital MRSE S. epidermidis 437
Experimental: as §1, §2

[7] = system: S. epidermidis 511; assay: MIC, hospital MRSE strain; type: cell-based, Staphylococcus epidermidis; conditions: hospital MRSE S. epidermidis 511
Experimental: as §1, §2

[8] = system: S. epidermidis 433; assay: MIC, hospital MRSE strain; type: cell-based, Staphylococcus epidermidis; conditions: hospital MRSE S. epidermidis 433
Experimental: as §1, §2

[9] = system: S. epidermidis 471; assay: MIC, hospital MRSE strain; type: cell-based, Staphylococcus epidermidis; conditions: hospital MRSE S. epidermidis 471
Experimental: as §1, §2

[10] = system: S. epidermidis 424; assay: MIC, hospital MRSE strain; type: cell-based, Staphylococcus epidermidis; conditions: hospital MRSE S. epidermidis 424
Experimental: as §1, §2

[11] = system: S. epidermidis 423; assay: MIC, hospital MRSE strain; type: cell-based, Staphylococcus epidermidis; conditions: hospital MRSE S. epidermidis 423
Experimental: as §1, §2

[12] = system: S. epidermidis 436; assay: MIC, hospital MRSE strain; type: cell-based, Staphylococcus epidermidis; conditions: hospital MRSE S. epidermidis 436
Experimental: as §1, §2

[13] = system: S. epidermidis 513; assay: MIC, hospital MRSE strain; type: cell-based, Staphylococcus epidermidis; conditions: hospital MRSE S. epidermidis 513
Experimental: as §1, §2

[14] = system: S. epidermidis 469; assay: MIC, hospital MRSE strain; type: cell-based, Staphylococcus epidermidis; conditions: hospital MRSE S. epidermidis 469
Experimental: as §1, §2

[15] = system: S. epidermidis 431; assay: MIC, hospital MRSE strain; type: cell-based, Staphylococcus epidermidis; conditions: hospital MRSE S. epidermidis 431
Experimental: as §1, §2

[16] = system: S. epidermidis 432; assay: MIC, hospital MRSE strain; type: cell-based, Staphylococcus epidermidis; conditions: hospital MRSE S. epidermidis 432
Experimental: as §1, §2

[17] = system: Bacillus subtilis H17 (rec+); assay: Bacillus subtilis rec-assay, H17; type: cell-based; conditions: B. subtilis H17; 256 µg per disc (NOQ 2 µg per disc)
Experimental: (§3) DNA-damaging activity of compounds was tested by rec-assay using two genetically modified Bacillus subtilis strains: M45 (rec^−) and H17 (rec^+). Tested compounds were dissolved in DMSO, and 10 µL of each solution was dripped onto sterile cotton discs (Rotilabo) to load 256 µg of a given compound per 9 mm disc. Discs were placed on the surface nutrient agar plates (Difco), inoculated with 100 µL of bacterial overnight culture and incubated […] at 35 °C. After incubation, the growth inhibition zones were measured. […] Results of the genotoxicity test were estimated after 18 h of incubation at 35 °C by comparing the diameter of the inhibition zone on the B. subtilis M45 (rec^−) strain with that on the B. subtilis H17 (rec^+) strain.

[18] = system: Bacillus subtilis M45 (rec−); assay: Bacillus subtilis rec-assay, M45; type: cell-based; conditions: B. subtilis M45; 256 µg per disc (NOQ 2 µg per disc)
Experimental: as §3

[19] = system: S. epidermidis ATCC 35984; assay: MIC, twofold serial microdilution; type: cell-based, Staphylococcus epidermidis; conditions: S. epidermidis ATCC 35984, 18 h, 35 °C
Experimental: as §1, §2

[20] = system: S. epidermidis ATCC 12228; assay: MIC, twofold serial microdilution; type: cell-based, Staphylococcus epidermidis; conditions: S. epidermidis ATCC 12228, 18 h, 35 °C
Experimental: as §1, §2

Structure (SMILES) | MIC [1] [µg/mL] | MIC [2] [µg/mL] | MIC [3] [µg/mL] | MIC [4] [µg/mL] | MIC [5] [µg/mL] | MIC [6] [µg/mL] | MIC [7] [µg/mL] | MIC [8] [µg/mL] | MIC [9] [µg/mL] | MIC [10] [µg/mL] | MIC [11] [µg/mL] | MIC [12] [µg/mL] | MIC [13] [µg/mL] | MIC [14] [µg/mL] | MIC [15] [µg/mL] | MIC [16] [µg/mL] | inhibition zone diameter [17] [mm] | inhibition zone diameter [18] [mm] | MIC [19] [µg/mL] | MIC [20] [µg/mL]
O=[N+]([O-])c1cc([N+]2=C(Nc3ccc(I)cc3)[S][Cu-2]23[S]C(Nc2ccc(I)cc2)=[N+]3c2ccc(Cl)c([N+](=O)[O-])c2)ccc1Cl [Compound 8, Copper (II) complex with 1-(4-iodophenyl)-3-(4-chloro-3-nitrophenyl)thiourea] | 8 | 8 | 8 | 8 | 8 | 8 | 8 | 4 | 8 | 8 | 8 | 8 | 8 | 8 | 8 | 8 | 14 | 14 | 4 | 8
O=[N+]([O-])c1cc([N+]2=C(Nc3ccc(F)c(Cl)c3)[S][Cu-2]23[S]C(Nc2ccc(F)c(Cl)c2)=[N+]3c2ccc(Cl)c([N+](=O)[O-])c2)ccc1Cl [Compound 4, Copper (II) complex with 1-(3-chloro-4-fluorophenyl)-3-(4-chloro-3-nitrophenyl)thiourea] | 8 | 4 | 8 | 8 | 4 | 8 | 4 | 4 | 8 | 8 | 4 | 8 | 8 | 4 | 8 | 8 | 16 | 18 | 4 | 4
O=[N+]([O-])c1cc([N+]2=C(Nc3ccccc3F)[S][Cu-2]23[S]C(Nc2ccccc2F)=[N+]3c2ccc(Cl)c([N+](=O)[O-])c2)ccc1Cl [Compound 7, Copper (II) complex with 1-(2-fluorophenyl)-3-(4-chloro-3-nitrophenyl)thiourea] | 8 | 8 | 8 | 8 | 8 | 8 | 8 | 8 | 8 | 8 | 8 | 8 | 8 | 8 | 8 | 8 | 15 | 18 | 32 | 32
O=[N+]([O-])c1cc([N+]2=C(Nc3ccc(Cl)c(Cl)c3)[S][Cu-2]23[S]C(Nc2ccc(Cl)c(Cl)c2)=[N+]3c2ccc(Cl)c([N+](=O)[O-])c2)ccc1Cl [Compound 5, Copper (II) complex with 1-(4-chloro-3-nitrophenyl)-3-(3,4-dichlorophenyl)thiourea] | 32 | 32 | 32 | 16 | 32 | 32 | 32 | 32 | 32 | 32 | 32 | 32 | 16 | 32 | 16 | 32 | 17 | 18 | 32 | 32
O=[N+]([O-])c1cc([N+]2=C(Nc3cccc(Br)c3)[S][Cu-2]23[S]C(Nc2cccc(Br)c2)=[N+]3c2ccc(Cl)c([N+](=O)[O-])c2)ccc1Cl [Compound 2, Copper (II) complex with 1-(3-bromophenyl)-3-(4-chloro-3-nitrophenyl)thiourea] | 8 | 8 | 8 | 8 | 8 | 8 | 8 | 8 | 8 | 8 | 8 | 8 | 8 | 8 | 8 | 8 | 17 | 19 | 16 | 16
O=[N+]([O-])c1cc([N+]2=C(Nc3ccc(Br)cc3)[S][Cu-2]23[S]C(Nc2ccc(Br)cc2)=[N+]3c2ccc(Cl)c([N+](=O)[O-])c2)ccc1Cl [Compound 3, Copper (II) complex with 1-(4-bromophenyl)-3-(4-chloro-3-nitrophenyl)thiourea] | 4 | 8 | 4 | 4 | 8 | 8 | 4 | 4 | 8 | 4 | 4 | 4 | 4 | 4 | 4 | 4 | 15 | 15 | 16 | 16
O=[N+]([O-])c1cc(NC2=[N+](c3ccc(Cl)c([N+](=O)[O-])c3)[Cu-2]3([S]2)[S]C(Nc2ccc(Cl)c([N+](=O)[O-])c2)=[N+]3c2ccc(Cl)c([N+](=O)[O-])c2)ccc1Cl [Compound 6, Copper (II) complex with 1,3-bis(4-chloro-3-nitrophenyl)thiourea] | 128 | 64 | 128 | 64 | 64 | 128 | 64 | 64 | 64 | 64 | 64 | 128 | 64 | 64 | 64 | 64 | 16 | 15 | 8 | 8
